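Test compounds were applied to cells in 96-well plates for 48 hours at 5 doses. TGI is the concentration that stops growth completely.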
Assays:
Test in all cases: inhibition of tumour cell growth, NCI panel, 48 h
MDA-N = system: MDA-N
NCI-H23 lung = system: NCI-H23 lung
NCI-H522 lung = system: NCI-H522 lung
OVCAR-5 ovarian = system: OVCAR-5 ovarian
PC-3 prostate = system: PC-3 prostate
SF-295 CNS = system: SF-295 CNS
SK-MEL-2 melanoma = system: SK-MEL-2 melanoma
SNB-19 CNS = system: SNB-19 CNS
UACC-257 melanoma = system: UACC-257 melanoma
UO-31 renal = system: UO-31 renal

SMILES	TGI (MDA-N) [µM]	TGI (NCI-H23 lung) [µM]	TGI (NCI-H522 lung) [µM]	TGI (OVCAR-5 ovarian) [µM]	TGI (PC-3 prostate) [µM]	TGI (SF-295 CNS) [µM]	TGI (SK-MEL-2 melanoma) [µM]	TGI (SNB-19 CNS) [µM]	TGI (UACC-257 melanoma) [µM]	TGI (UO-31 renal) [µM]
O=C1C(c2c(O)[nH]c3ccc(I)cc23)=Nc2ccccc21	> 100	45.7	> 58.9	57.1	9.4	> 64.4	15.4	42.8	> 75.1	14.4
COC(=O)[C@@H](NC(=O)c1ccc(CNC(=O)/C(C)=C/c2ccccc2)cc1)C(C)C	> 100	> 100	> 100	> 100	> 100	> 100	> 100	> 100	39	> 100
O=C1CCc2ccccc2O1	> 100	> 100	> 100	> 100	> 100	> 100	> 100	> 100	> 100	> 100
Clc1ccc(Nc2nnc(CNc3ccc(-c4nnc(Nc5ccc(Cl)cc5)o4)cc3)o2)cc1	44.5	36	37.1	40.7	25.3	38.4	45.8	46	50.6	35.2
CC1(C)OC2OC(C(=O)c3ccccc3)C3OC(C)(C)OC3C2O1 (stereo not given)	> 100	> 100	> 100	> 100	> 100	> 100	> 100	> 100	> 100	> 100
O=C(c1cccnc1)N1N=C(c2ccc3c(c2)OCO3)CC1(O)c1cc(F)c(Cl)cc1Cl (stereo not given)	> 100	> 100	33.8	49.4	> 100	59.4	59.2	> 100	51.2	41.3
CC(=O)OC12OC(C)(C3C(=O)N(c4ccccc4)C(=O)C31)N(c1ccccc1)C2=O (stereo not given)	> 100	> 100	> 100	> 100	> 100	> 100	> 100	> 100	> 100	> 100
O=C1C=CC(=O)[C@H]2C3C=CC(C4C3C3(Cl)C(Cl)=C(Cl)[C@]4(Cl)C3(Cl)Cl)[C@@H]12 (stereo not given in full)	15.8	25.7	23.1	19.7	16.4	25.2	20.3	17	6.23	22.1
O=C1c2c(F)c(F)c(F)c(F)c2SC2=Nc3cccc4cccc(c34)N12	16.7	10.9	9.01	30.9	17.2	30.9	7.89	21.1	13.2	21.7
CC1=C(C(=O)NCCCN(CCO)CCO)CC(C(=O)NCCCN(CCO)CCO)=C(C)N1	> 100	> 100	> 100	> 100	> 100	> 100	> 100	> 100	> 100	> 100
N#CCN1CCCN(CC#N)CCN(CC#N)CCCN(CC#N)CC1	> 100	> 100	> 100	> 100	> 100	> 100	> 100	> 100	> 100	> 100
COc1ccccc1[C@@H]1CCC2CC[C@@H](c3ccccc3OC)[N+]21Cc1ccccc1 (stereo not given in full)	12.6	6.63	11.5	12.9	7.94	8.57	8.86	16.5	14.1	10.6
CN(C)C1(c2cc3ccccc3s2)CCCCC1	> 100	> 100	41.7	> 100	> 100	> 100	47.7	> 100	80.4	> 100

Source: PubChem BioAssay (NCI)
